The test has as its target T1, SynLPD (dihydrolipoyl dehydrogenase, E3 subunit of the PDH complex) (Synechocystis sp. PCC 6803, UniProt P72740).
T1 construct: gene lpdA
T1 sequence (P72740 2-474): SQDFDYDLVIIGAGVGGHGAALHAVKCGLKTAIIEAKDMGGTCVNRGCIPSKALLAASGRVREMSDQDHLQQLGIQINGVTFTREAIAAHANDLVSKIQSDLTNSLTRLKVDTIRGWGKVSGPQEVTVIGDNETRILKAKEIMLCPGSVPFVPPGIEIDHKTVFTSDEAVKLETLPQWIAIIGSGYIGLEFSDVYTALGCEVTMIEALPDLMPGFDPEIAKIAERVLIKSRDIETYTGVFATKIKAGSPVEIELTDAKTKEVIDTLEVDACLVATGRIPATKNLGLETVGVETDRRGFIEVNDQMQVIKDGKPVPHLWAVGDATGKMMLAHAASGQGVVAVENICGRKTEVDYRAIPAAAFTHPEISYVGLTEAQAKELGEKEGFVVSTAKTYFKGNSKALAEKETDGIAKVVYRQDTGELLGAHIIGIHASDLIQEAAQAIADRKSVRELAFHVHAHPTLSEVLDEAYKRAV
As to the kind of experiment: NAD+ reduction at […] nm; Ki from slopes of Lineweaver-Burk plots. Format: biochemical.

As for `NC(=O)C1=CN([C@@H]2O[C@H](COP(=O)(O)OP(=O)(O)OC[C@H]3O[C@@H](n4cnc5c(N)ncnc54)[C@H](O)[C@@H]3O)[C@@H](O)[C@H]2O)C=CC1` [NADH], the inhibition constant (Ki) is 38.3 µM.

The values are drawn from article PMC8887894, “Pyruvate:ferredoxin oxidoreductase and low abundant ferredoxins support aerobic photomixotrophic growth in cyanobacteria” (eLife, 2022).
